Laboratory results taken from US6534502B2, “Substituted oximes and hydrazones as neurokinin antagonists” (Schering Corporation, priority 1998, dated 2003).

Assays:
NK2 receptor = target: T1, NK2 receptor (Homo sapiens, UniProt P21452); assay: neurokinin receptor binding assay, NK2
T1 sequence (P21452 1-398): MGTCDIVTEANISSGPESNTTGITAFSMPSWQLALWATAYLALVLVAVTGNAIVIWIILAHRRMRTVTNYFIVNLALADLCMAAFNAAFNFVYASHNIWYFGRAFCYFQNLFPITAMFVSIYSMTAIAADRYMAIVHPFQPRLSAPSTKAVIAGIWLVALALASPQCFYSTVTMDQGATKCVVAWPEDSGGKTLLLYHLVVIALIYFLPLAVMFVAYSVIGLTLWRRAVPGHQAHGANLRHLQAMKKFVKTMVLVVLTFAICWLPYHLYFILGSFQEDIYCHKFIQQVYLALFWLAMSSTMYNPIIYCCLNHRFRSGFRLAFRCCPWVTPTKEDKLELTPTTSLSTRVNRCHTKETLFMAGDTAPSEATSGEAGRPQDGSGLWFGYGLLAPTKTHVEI
Description: (§1) The in vitro and in vivo activity of the compounds of formula I can be determined by various procedures known in the art, such as a test for their ability to inhibit the activity of the NK1 agonist Substance P, an isolated hamster trachea NK2 assay, a test of the effect of NK1 antagonists on Substance P-induced airway microvascular leakage, measurement of NK2 activity in vivo in guinea pigs, measurement of bronchoconstriction due to NKA, and neurokinin receptor binding assay(s).
(§2) % Inhibition of neurokinin agonist activity is the difference between the percent of maximum specific binding (MSB) and 100%. The percent of MSB is defined by the following equation, wherein “dpm” is disintegrations per minute: [formula]

NK1 receptor = NK1 receptor (Homo sapiens, UniProt P25103); assay: neurokinin receptor binding assay, NK1
Sequence of NK1 receptor (P25103 whole entry, species assumed): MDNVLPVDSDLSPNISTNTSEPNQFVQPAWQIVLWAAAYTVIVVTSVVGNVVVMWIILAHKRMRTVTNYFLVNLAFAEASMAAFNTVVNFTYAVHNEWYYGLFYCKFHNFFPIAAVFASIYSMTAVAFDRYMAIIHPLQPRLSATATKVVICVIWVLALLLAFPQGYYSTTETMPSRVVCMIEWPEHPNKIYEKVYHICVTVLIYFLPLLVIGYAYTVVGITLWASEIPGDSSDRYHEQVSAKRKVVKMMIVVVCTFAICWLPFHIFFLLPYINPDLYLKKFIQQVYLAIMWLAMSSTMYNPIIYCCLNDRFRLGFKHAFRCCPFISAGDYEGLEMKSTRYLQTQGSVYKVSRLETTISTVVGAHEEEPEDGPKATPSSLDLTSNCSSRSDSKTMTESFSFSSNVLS
Description: as §1, with “assay(s). NK3 activity is determined by following a procedure similar to that described in the literature, e.g., Molecular Pharmacol., 48 (1995), p. 711-716.” for “assay(s).”
as §2

NK3 receptor = target: T2, NK3 receptor (Homo sapiens, UniProt P29371); assay: neurokinin receptor binding assay, NK3
T2 sequence (P29371 1-465): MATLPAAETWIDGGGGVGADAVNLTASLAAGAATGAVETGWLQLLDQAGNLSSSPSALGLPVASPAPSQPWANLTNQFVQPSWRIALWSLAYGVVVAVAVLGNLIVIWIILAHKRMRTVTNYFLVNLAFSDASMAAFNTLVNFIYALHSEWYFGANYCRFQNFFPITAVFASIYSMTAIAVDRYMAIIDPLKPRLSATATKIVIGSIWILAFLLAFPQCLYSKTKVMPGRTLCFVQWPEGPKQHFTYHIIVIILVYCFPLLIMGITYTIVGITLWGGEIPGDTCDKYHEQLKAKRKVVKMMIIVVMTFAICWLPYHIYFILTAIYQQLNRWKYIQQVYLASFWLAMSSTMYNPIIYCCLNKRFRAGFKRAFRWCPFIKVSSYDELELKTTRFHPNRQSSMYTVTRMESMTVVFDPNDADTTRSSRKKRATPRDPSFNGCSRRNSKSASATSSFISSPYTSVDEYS
Description: as §1, with “assay(s). NK3 activity is determined by following a procedure similar to that described in the literature, e.g., Molecular Pharmacol., 48 (1995), p. 711-716.” for “assay(s).”
as §2

Row | Ki (NK2 receptor) | Ki (NK1 receptor) | Ki (NK3 receptor) | SMILES
1 | 2.8 nM | 0.9 nM |  | CON=C(CN(C)C(=O)c1cc(Cl)cc(Cl)c1)C(CCN1CCC(N2C(=O)c3ccccc3C2C)CC1)c1ccc(Cl)c(Cl)c1 (stereo not shown) [Example 5B]
2 | 0.4 nM | 0.4 nM | 0.4 nM | CO/N=C(\CN(C)C(=O)c1cc(Cl)cc(Cl)c1)[C@H](CCN1CCC(N2CCCN(Cc3ccc[n+]([O-])c3)C2=O)CC1)c1ccc(Cl)c(Cl)c1 [Example 6Y]
3 | 28.9 nM | 2.9 nM | 34.6 nM | CO/N=C(\CN(C)C(=O)c1cc(Cl)cc(Cl)c1)C(CCN1CCC(N2CC(=O)N[C@@H](CC(=O)O)C2=O)CC1)c1ccc(Cl)c(Cl)c1 (stereo partly shown) [Example 10B]
4 | 0.7 nM | 1.1 nM | 1.2 nM | CO/N=C(\CN(C)C(=O)c1cc(Cl)cc(Cl)c1)C(CCN1CCC(N2CCNCC2=O)CC1)c1ccc(Cl)c(Cl)c1 (stereo not shown) [Example 8A]
5 | 1 nM | 0.8 nM | 1.9 nM | CO/N=C(\CN(C)C(=O)c1cc(Cl)cc(Cl)c1)[C@H](CCN1CCC(N2CC(=O)N[C@H](CC(N)=O)C2=O)CC1)c1ccc(Cl)c(Cl)c1 [Example 11A]
6 | 0.5 nM | 0.9 nM | 0.3 nM | CON=C(CN(C)C(=O)c1cc(Cl)cc(Cl)c1)C(CCN1CCC(N2CCCN(C(C)(C)C(=O)O)C2=O)CC1)c1ccc(Cl)c(Cl)c1 (stereo not shown) [Example 6M]

Further lines, the compound ahead of its results:

Row | SMILES | Ki (NK2 receptor) | Ki (NK1 receptor) | Ki (NK3 receptor)
7 | CO/N=C(\CN(C)C(=O)c1cc(Cl)cc(Cl)c1)[C@H](CCN1CCC(N2CCCN(Cc3nn[nH]n3)C2=O)CC1)c1ccc(Cl)c(Cl)c1 [Example 6S] |  |  | 2.1 nM
8 | CO/N=C(\CN(C)C(=O)c1cc(Cl)cc(Cl)c1)[C@H](CCN1CCC(N2CCCN(CC(=O)N3CCOCC3)C2=O)CC1)c1ccc(Cl)c(Cl)c1 [Example 6E] | 1 nM | 1 nM | 1.5 nM
9 | CO/N=C(\CN(C)C(=O)c1cc(Cl)cc(Cl)c1)[C@H](CCN1CCC(n2c(=O)[nH]c3ccccc32)CC1)c1ccc(Cl)c(Cl)c1 [Example 18A] |  |  | 9.8 nM
10 | CO/N=C(\CN(C)C(=O)c1ccc2c(c1)OCO2)[C@H](CCN1CCC(N2CCCNC2=O)CC1)c1ccc(Cl)c(Cl)c1 [Example 7F] | 0.4 nM | 1.8 nM | 3.8 nM
11 | CN(C/C(=N\OC/C(N)=N/O)C(CCN1CCC(N2CCCN(C/C(N)=N/O)C2=O)CC1)c1ccc(Cl)c(Cl)c1)C(=O)c1cc(Cl)cc(Cl)c1 (stereo not shown) [Example 16] | 0.4 nM | 0.4 nM | 0.7 nM
